“Also recorded” adds a separate entry of the source.

These results are taken from patent publication US10206921B2, “Methods and compositions for treating a subject for central nervous system (CNS) injury” (THE REGENTS OF THE UNIVERSITY OF CALIFORNIA, priority 2009, dated 2019).

For assay [1], the target named is T1, GABA transporters (GATs): GAT-1, GAT-3/4 (Mus musculus, UniProt P31648).
T1 construct: Whole-cell patch-clamp recordings were made from post-stroke brain slices; from tissue; host or cells: brain slices, peri-infarct motor cortex, recordings from layer 2/3 pyramidal neurons
The assay can be described thus: Whole-cell patch-clamp of tonic inhibition (Itonic) in brain slices after GAT blockade. As to conditions: NO-711 10 μM. The assay is classed as cell-based. The text has this: (§1) Whole-cell patch-clamp recordings were made from post-stroke brain slices, within 200 μm of infarct (top left), from layer-2/3 (top right) pyramidal neurons (bottom panels) (FIG. 1A). Cells were voltage-clamped at +10 mV. […] FIGS. 1C and D show representative traces showing the tonic inhibitory currents in control and peri-infarct neurons, respectively.
(§2) Itonic remained elevated from 3- to 14-days post-stroke.
(§3) In post-stroke neurons, co-application only produced an effect (110.7±32.0%, n=5) similar to GAT-1 blockade alone (P<0.68; FIG. 2A), indicating a dysfunction in GAT-3/4 after stroke.

Assay [2] deals with mice after stroke. The assay can be described thus: Cylinder task (spontaneous forelimb use when rearing) after stroke. The assay is classed as in vivo, mouse. As to conditions: for gain of function post-stroke on the cylinder task: 7 to 42 days post-stroke. The text has this: (§4) Stroke completely destroys the tissue in at the center of the stroke (the core) and partially damages the tissue adjacent to the infarct (Katsman D, Spinelli K, Zhang J, and Carmichael S T (2003) Tissue microenvironments within functional cortical subdivisions adjacent to focal stroke. J Cereb Blood Flow Met 23:997-1009; Carmichael S T, Archibeque I, Luke L, Nolan T, Momiy J, Li S. (2005) Growth-Associated Gene Expression after Stroke: Evidence for a growth-promoting region in peri-infarct cortex. Expt Neurol. 193:291-311), i.e., the peri-infarct region. Studies indicate that this peri-infarct region is disabled through partial damage to neuronal circuits, as described above. To model this process experimentally, a stroke model was used that produces complete damage to a part of the brain that controls forelimb use in a mouse, the forelimb motor cortex (FIGS. 5A-5B). […] The stroke destroys part of the forelimb motor cortex. The vertical line indicates site of tissue sections in the middle panel. […] The stroke damage is restricted to the cortex, with partial damage in adjacent white mater and surrounding motor areas. This damage is seen as increased staining for GFAP (reactive astrocytes, arrows) and increased cellularity in Nissl stains (arrows). This stroke knocks out part of the forelimb motor cortex and causes partial damage to the rest of forelimb cortex and to hindlimb motor cortex. This disables fore- and hindlimb control and produces weakness in using these limbs for walking and for exploratory forelimb behaviors, (such as using the forelimb when rearing onto objects, FIGS. 6A-6C). Measures of fore- and hindlimb behaviors in this model of stroke thus provide a readout of the function of partially damaged brain areas near the stroke core.
Treatments that must be administered very early in the clinical course of stroke, such as tPA, are difficult to deliver because most patients are not in the hospital and so rapid emergency response and laboratory screening systems must be developed. […]

In assay [3] the test system is mice after stroke. In words: Grid-walking task after stroke in forelimb motor cortex. It is filed as in vivo, mouse. To be noted: subcutaneous osmotic minipump from 3 days after stroke.
Excerpt: as §4, with “This damage is seen as increased staining for GFAP (reactive astrocytes, arrows) and increased cellularity in Nissl stains (arrows). This stroke knocks out part of the forelimb motor cortex and causes partial damage to the rest of forelimb cortex and to hindlimb motor cortex. This disables fore- and hindlimb control and produces weakness in using these limbs for walking and for exploratory forelimb behaviors, (such as using the forelimb when rearing onto objects, FIGS. 6A-6C).” left out, “core. […]” for “core.”

Assay [4] addresses T2, α5GABAA receptor (Mus musculus, UniProt P22723+Q8BHJ7).
T2 construct: Whole-cell patch-clamp recordings were made from post-stroke brain slices; from tissue; host or cells: brain slices, peri-infarct motor cortex, layer 2/3 pyramidal neurons
The assay can be described thus: Whole-cell patch-clamp of tonic inhibition (Itonic) in brain slices with L655,708. The assay is classed as cell-based.
Excerpt: as §1, §2, §3
(Patch clamp records ionic current or voltage across a cell membrane.)

The test system of assay [5] is mice after stroke. In words: Behavioral/functional recovery after stroke (grid-walking and cylinder tasks together). It is filed as in vivo, mouse. How it is done:
The GABAaα5 inverse agonist L655,708 was administered through subcutaneously implanted osmotic minipumps. Mice were tested fore- and hindlimb function before, and then at one, two, four and six weeks after stroke.
FIGS. 9A-9C illustrate behavioral recovery after stroke in young and aged animals with L655,708. […] Functional recovery was assessed behaviorally on both the gridwalking task for forelimb footfaults (FIG. 9A) and hindlimb footfaults (FIG. 9B), and on the cylinder task for forelimb asymmetry (FIG. 9C). […] On average the normal gain of function in the aged stroke+vehicle treated animals is less than that of the young stroke+vehicle treated animals. In addition, the aged stroke+L655,708 animals show slightly less improvement compared to young stroke+L655,708 animals. For instance, on the cylinder task young stroke+L655,708 animals show a 15-18% gain of function post-stroke (7 to 42-days), compared with a 13-16% gain of function post-stroke in the aged. Data is shown as mean±s.e.m. for n=8 per group for L655,708 treatment for both young and aged animals, ***=P≤0.001 for stroke+vehicle vs Sham; +=P≤0.05, ++=P≤0.001 aged stroke+L655,708 vs aged stroke+vehicle, ##=P≤0.01, #=P≤0.001 young stroke+L655,708 vs young stroke+vehicle.
Functional recovery was assessed behaviorally on both the gridwalking task for forelimb footfaults (FIG. 10A), hindlimb footfaults (FIG. 10B), and on the cylinder task for forelimb asymmetry (FIG. 10C). Data are shown as mean±s.e.m. for n=8 per group, ***=P≤0.001 for stroke+vehicle vs. Sham; ##=P≤0.01, #=P≤0.001 vs. stroke+vehicle.
Two different durations of treatment were used (2 weeks and 6 weeks after stroke. Because stroke is a disease of aging, and the clinical target of stroke is most commonly aged patients, L655,708 was tested in aged animals after stroke. At the end of behavioral testing (6 weeks after stroke) mice received mapping of the pattern of cortical connections in the motor system in peri-infarct cortex (Overman J J, Kalaria S, Overman B, Willis D, Twiss J, Wanner I B, Li S, Carmichael S T (2008) Post-stroke blockade of ephrinA5 increases axonal sprouting in the mouse somatosensory cortex. Soc Neurosci. Abst.). Axonal sprouting in this pen-infarct cortex is closely associated with functional recovery in stroke (Carmichael, '06). Therapies directed toward neural repair after stroke promote the formation of new connections in peri-infarct cortex (Overman et al., '08).
To define the total role of GABAA α5 and δ receptors in functional recovery after stroke, behavioral testing was performed on Gabra5^−/− and Gabrd^−/− mice (FIGS. 8A-8C). For both α5 and δ knockouts, the same experimental approach was utilized. Mice were tested for e- and hindlimb function before stroke. […]

The subject of assay [6] is GABAARs. The assay can be described thus: GABAAR saturation test: GABA raised in ACSF after blocking both GATs. It is filed as cell-based, mouse. To be noted: GABA +10 μM in ACSF after 10 μM NO-711+40 μM SNAP-5114; control slices; n=3. From the text:
Whole-cell patch-clamp recordings were made from post-stroke brain slices, within 200 μm of infarct (top left), from layer-2/3 (top right) pyramidal neurons (bottom panels) (FIG. 1A). Cells were voltage-clamped at +10 mV.

T2 sequence (Q8BHJ7 32-463 limits assumed): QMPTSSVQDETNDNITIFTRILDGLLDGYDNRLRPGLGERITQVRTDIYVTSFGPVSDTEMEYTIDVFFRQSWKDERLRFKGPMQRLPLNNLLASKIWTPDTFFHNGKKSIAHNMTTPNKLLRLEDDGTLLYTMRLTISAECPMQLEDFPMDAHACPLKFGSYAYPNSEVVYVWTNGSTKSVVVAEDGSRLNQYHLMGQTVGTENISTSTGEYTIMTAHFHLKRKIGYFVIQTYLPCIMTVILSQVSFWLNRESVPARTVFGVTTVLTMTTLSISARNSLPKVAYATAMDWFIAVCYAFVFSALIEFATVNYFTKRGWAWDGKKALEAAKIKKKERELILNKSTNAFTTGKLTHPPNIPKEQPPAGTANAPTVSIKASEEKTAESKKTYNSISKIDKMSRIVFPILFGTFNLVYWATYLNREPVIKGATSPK
T2 sequence (P22723 39-474): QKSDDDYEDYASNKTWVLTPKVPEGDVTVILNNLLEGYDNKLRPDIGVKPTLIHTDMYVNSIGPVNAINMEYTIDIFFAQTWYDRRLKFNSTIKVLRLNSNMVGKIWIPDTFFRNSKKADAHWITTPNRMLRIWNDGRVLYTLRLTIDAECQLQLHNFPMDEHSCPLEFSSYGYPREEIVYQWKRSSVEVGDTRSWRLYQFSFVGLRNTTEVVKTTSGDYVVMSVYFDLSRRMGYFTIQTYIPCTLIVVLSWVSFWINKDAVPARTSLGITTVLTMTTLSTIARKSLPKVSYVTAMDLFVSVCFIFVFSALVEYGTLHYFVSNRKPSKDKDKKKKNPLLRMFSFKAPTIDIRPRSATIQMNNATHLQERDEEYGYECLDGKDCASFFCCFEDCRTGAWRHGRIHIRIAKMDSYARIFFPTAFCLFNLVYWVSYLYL
T2 sequence (P63080 26-473 partner): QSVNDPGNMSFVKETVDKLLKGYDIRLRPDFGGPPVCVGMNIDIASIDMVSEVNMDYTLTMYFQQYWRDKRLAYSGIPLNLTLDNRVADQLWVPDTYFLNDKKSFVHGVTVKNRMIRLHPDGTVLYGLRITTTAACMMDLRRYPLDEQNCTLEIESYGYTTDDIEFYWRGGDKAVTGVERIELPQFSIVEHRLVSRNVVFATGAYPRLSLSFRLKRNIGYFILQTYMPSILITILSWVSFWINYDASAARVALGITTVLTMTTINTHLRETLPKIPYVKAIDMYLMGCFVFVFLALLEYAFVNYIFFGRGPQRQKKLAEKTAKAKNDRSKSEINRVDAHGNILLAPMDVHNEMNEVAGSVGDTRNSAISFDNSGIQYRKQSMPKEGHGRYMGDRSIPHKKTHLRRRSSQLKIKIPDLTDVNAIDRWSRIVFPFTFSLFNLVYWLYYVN

With `O=C(O)C1=CCCN(CCON=C(c2ccccc2)c2ccccc2)C1` [NO-711], the “% Itonic increase after GAT blockade” value in assay [1] (control neurons, n=6) is on record as 34.3±11.4%; in assay [1] (post-stroke neurons, n=10), 94.0±16.3%.

On to `CCOC(=O)c1ncn2c1[C@@H]1CCCN1C(=O)c1cc(OC)ccc1-2` [L655,708], for which the “gain of function post-stroke on the cylinder task” value in assay [2] (aged stroke animals) is reported as 13-16%; in assay [2] (young stroke animals) it was 15-18%. In assay [2] (subcutaneous osmotic minipump from 3 days after stroke, 7 day post-stroke test period, FIG. 6C), the “forelimb function in the cylinder task” value was “recovered right forelimb use very quickly”. In assay [3] (FIG. 6B), the “hindlimb function in the grid-walking task” value is recorded as “statistically significant improvement by the 42 day testing period”. Moreover, the “forelimb function in the grid-walking task” value in assay [3] (approx. 200 or 400 μg/kg/day, FIG. 6A) was “enhanced forelimb use”. In addition, the “effect on Itonic” value in assay [4] (100 nM, representative recording (FIG. 2D)) is reported as “reduced Itonic”. In assay [4] (post-stroke neurons, P<0.05 (FIG. 2F)), the “effect on post-stroke Itonic” value is “significantly decreased post-stroke Itonic, and notably reverted Itonic to near-control level”. The “behavioral recovery after stroke, dosing duration” value in assay [5] (2-week and 6-week treatment, 6-week the most significant recovery) is given as “produces behavioral recovery”. For the same compound, the “functional recovery after stroke in Gabrd−/− mice” value in assay [5] (L655,708 given to GABAA receptor δ subunit null mutant mice) was “additive effect on functional recovery; also recorded: further functional recovery”. Besides, in assay [5] (treatment from 3 days after stroke, young and aged animals, FIGS. 9A-9C), the “functional recovery after stroke” value is “increase in functional recovery in both young and aged animals”. In addition, the “behavioral recovery after stroke, dose dependence” value in assay [5] (young adult and aged mice, low and high dose) is reported as “promotes behavioral recovery after stroke in a dose-dependent manner”.

On to `NCCCC(=O)O` [GABA, gamma aminobutyric acid], for which the “percent increase in Itonic” value in assay [6] is 25.7±15.0%.
